Converted amounts (≈) assume the structure as drawn. The source made the active and inactive calls. The rule behind the calls is not given here.

Assay [1] has as its system Mycobacterium tuberculosis. As to the kind of experiment: Antitubercular activity against Mycobacterium tuberculosis H37Ra under aerobic condition after 7 days by MTT method. The assay is classed as functional. The following applies: 168 h. In general terms: Tetrazolium dyes change colour on reduction, which living cells bring about.
Assay [2] has as its system Mycolicibacterium smegmatis. As to the kind of experiment: Antitubercular activity against guaB1 gene over-expressed Mycobacterium smegmatis MC2 155 ICHO1002. The assay is classed as functional. The following applies: str. MC2 155.
Assay [3] concerns Mycolicibacterium smegmatis. As to the kind of experiment: Antitubercular activity against guaB2 gene over-expressed Mycobacterium smegmatis MC2 155 ICHO1003. It is filed as functional. The following applies: str. MC2 155.
Another assay has as its system Mycobacterium kansasii. As to the kind of experiment: Antitubercular activity against Mycobacterium kansasii ATCC 35775 after 14 days. The assay is classed as functional. Particulars: ATCC 35775, 336 h.
The test system of assay [4] is Mycolicibacterium smegmatis. As to the kind of experiment: Antitubercular activity against Mycobacterium smegmatis MC2 155 ICHO1001 with pMV261 transformant. It is filed as functional. The following applies: str. MC2 155.
For assay [5], the system named is Mycolicibacterium smegmatis. As to the kind of experiment: Bactericidal activity against Mycobacterium smegmatis MC2 155 assessed as decrease in CFU at 10 ug/ml after 4 days. It is filed as functional, organism-based. The following applies: str. MC2 155.
A further assay concerns Mycolicibacterium aurum. Kind of assay: Antitubercular activity against Mycobacterium aurum ATCC 23366 after 14 days. Particulars: ATCC 23366, 336 h. The assay is classed as functional.
Assay [6] concerns Mycolicibacterium smegmatis. As to the kind of experiment: Antitubercular activity against Mycobacterium smegmatis MC2 155 under hypoxic condition after 96 hrs by MTT method. It is filed as functional. The following applies: str. MC2 155, 96 h.
Assay [7] deals with Mycobacterium tuberculosis. Kind of assay: Antitubercular activity against Mycobacterium tuberculosis H37Ra under hypoxic condition after 14 days by MTT method. It is filed as functional. The following applies: 336 h.
The test system of assay [8] is Mycobacterium tuberculosis. Kind of assay: Bactericidal activity against Mycobacterium tuberculosis H37Rv assessed as decrease in CFU at 20 ug/ml after 11 to 28 days. The assay is classed as functional.
A further assay deals with Mycobacterium avium. As to the kind of experiment: Antitubercular activity against Mycobacterium avium ATCC 35712 after 14 days. It is filed as functional. Particulars: ATCC 35712, 336 h.
Assay [9] concerns Mycolicibacterium smegmatis. Kind of assay: Antitubercular activity against guaB3 gene over-expressed Mycobacterium smegmatis MC2 155 ICHO1004. It is filed as functional. The following applies: str. MC2 155.
Assay [10] has as its system Mycobacterium tuberculosis. Kind of assay: Antitubercular activity against Mycobacterium tuberculosis Kurono ATCC 35812 after 14 days. It is filed as functional. The following applies: 336 h.
In assay [11] the test system is Mycolicibacterium smegmatis. As to the kind of experiment: Antitubercular activity against Mycobacterium smegmatis MC2 155 under aerobic condition after 24 hrs by MTT method. The assay is classed as functional. Particulars: str. MC2 155, 24 h.
The test system of assay [12] is Mycobacterium intracellulare. As to the kind of experiment: Antitubercular activity against Mycobacterium intracellular ATCC 35761 after 14 days. Particulars: ATCC 35761, 336 h. The assay is classed as functional.
In assay [13] the test system is Mycolicibacterium fortuitum. As to the kind of experiment: Antitubercular activity against Mycobacterium fortuitum ATCC 9820 after 14 days. It is filed as functional. The following applies: ATCC 9820, 336 h.
The test system of assay [14] is Mycobacterium tuberculosis. As to the kind of experiment: Antitubercular activity against Mycobacterium tuberculosis H37Rv ATCC 25618 after 14 days. The assay is classed as functional. The following applies: 336 h.

Regarding `C1=C2CCCC/C=C\C=C\CCN3CC[C@@H]4[C@H](CCCCCC/C=C\C=C/CCN(C2)C[C@H]14)C3` [HALICYCLAMINE A], the MIC in assay [1] was found to be 5 µg/mL (≈ 10.8 µM); in assay [2] it was 2.5 µg/mL (≈ 5.4 µM); in assay [3], 2.5 µg/mL (≈ 5.4 µM); against Mycobacterium kansasii, 3.13 µg/mL (≈ 6.76 µM); in assay [4], 2.5 µg/mL (≈ 5.4 µM); in the assay with Mycolicibacterium aurum, 6.25 µg/mL (≈ 13.5 µM). Besides, the MIC in [6] is 2.5 µg/mL (≈ 5.4 µM); in [7], 5 µg/mL (≈ 10.8 µM); against Mycobacterium avium, 6.25 µg/mL (≈ 13.5 µM); in assay [9], 2.5 µg/mL (≈ 5.4 µM); in assay [10] it was 3.13 µg/mL (≈ 6.76 µM); in assay [11], 2.5 µg/mL (≈ 5.4 µM). The MIC in assay [12] amounted to 6.25 µg/mL (≈ 13.5 µM); in assay [13], 25 µg/mL (≈ 54 µM); in assay [14] it was 6.25 µg/mL (≈ 13.5 µM). In addition, the outcome in assay [5] was Active. Further, the CFU/ml in assay [8] was less than 10.
Consider `NNC(=O)c1ccncc1` [ISONIAZID], for which the minimal inhibitory concentration (MIC) in [1] was 0.05 µg/mL (≈ 0.365 µM); in assay [6], 25 µg/mL (≈ 182 µM); in [7], greater than 100 µg/mL; in [11], 2.5 µg/mL (≈ 18.2 µM).

Broadly, the MIC is the lowest concentration found to suppress growth. A high value points to a need for much substance.

(Values after ChEMBL document CHEMBL1155003, “Halicyclamine A, a marine spongean alkaloid as a lead for anti-tuberculosis agent” (2008).)
